Tests used:
[1] = Imaging of 67Ga distribution in non-tumored rats, clearing agent six hours post dosing; type: in vivo, male Sprague Dawley rats
From the text: Initial studies used non-tumored male Sprague Dawley rats weighing between 250 and 300 grams. […] In all imaging studies, the animals were anesthetized by intraperitoneal injection of urethane (1 gm/Kg), and the left external jugular vein cannulated as a dosing site. The animals were then positioned under the detection of the γ-camera (Union Carbide; CLEON 720 Large Field Gamma Camera coupled with a CLEON 110 Image Processor) and images were obtained periodically.

[2] = Blood clearance of 67Ga (external blood loop), clearing agent given six hours after radiopharmaceutical; type: in vivo, male Sprague Dawley rats; parameters: % Increase in Blood Activity / Net Decrease in blood activity / % Decrease in Blood Activity: concentration or dose not given beside the values; conditions: for % Decrease in Blood Activity: 67Ga blood activity, clearing agent six hours after injection of radiopharmaceutical; for Net Decrease in blood activity / % Increase in Blood Activity / change in blood activity (in words): clearing agent six hours after radiopharmaceutical; for % Increase in Blood Activity: rise following the initial drop
[3] = relatively large doses; cited from earlier work
[4] = system: 5123C hepatoma; assay: Imaging of 67Ga distribution in tumored rats, clearing agent two hours after radiopharmaceutical; type: in vivo, male Buffalo rats
Procedure: FIGS. 3A-3C are scans (Union Carbide Cleon model 720 large field gamma camera) of Buffalo rats bearing implanted 5123C hepatomas.
At this point, the rat on the left received carrier gallium citrate (3.3 mg/Kg) and the rat on the right received indium citrate (2.1 mg/Kg).
Initial studies used non-tumored male Sprague Dawley rats weighing between 250 and 300 grams. Subsequent studies in tumored rats used male Buffalo rats bearing a 5123C hepatoma (The tumor line was initiated from donor animals donated by Drs. R. L. Hayes and B. Byrd of the Oak Ridge Associated Universities). In all imaging studies, the animals were anesthetized by intraperitoneal injection of urethane (1 gm/Kg), and the left external jugular vein cannulated as a dosing site. The animals were then positioned under the detection of the γ-camera (Union Carbide; CLEON 720 Large Field Gamma Camera coupled with a CLEON 110 Image Processor) and images were obtained periodically.
When the clearing agent was given two hours post radiopharmaceutical dosing, there were significant changes in gallium-67 distribution (FIG. 3). […] The results from use of indium citrate were somewhat more dramatic in that the activity is greatly diminished throughout the soft tissue regions. […] The most significant distributional change, however, is the obvious increase in tumor activity. […] To test this hypothesis, indium citrate was given with gallium-67 citrate as a single solution. […] Twenty minutes after the mixed dose is given, there is little activity outside the kidneys, bladder, tumor and bone. After two hours, there is essentially no activity in the animal other than in the above mentioned regions.

[5] = system: 5123C hepatoma; assay: Imaging of 67Ga distribution in tumored rats, clearing agent six hours after radiopharmaceutical
[6] = Blood clearance of 67Ga (external blood loop), clearing agent given two hours after radiopharmaceutical; type: in vivo, male Sprague Dawley rats
Procedure: Relative tissue concentrations are monitored by external imaging.
For blood clearance studies, male Sprague Dawley rats weighing 250-300 grams were used. The animals were anesthetized by peritoneal injection of an aqueous solution of urethan (1 gm/Kg). The right carotid artery and left jugular vein were exposed and an external blood loop (PE-50 tubing; volume.perspectiveto.0.14 ml) was inserted between the vessels. […] The right external jugular vein was then exposed and cannulated as an injection site. The animal was placed in a lead cradle and the blood loop inserted into the shielded well of a sodium iodide.thallium crystal. The animal received an injection of carrier-free gallium citrate (100-120 μCi) via the jugular cannula. […] Six hours post injection, the animal received a second injection containing one of the clearing agents (.perspectiveto.7.2 mmole/Kg). In subsequent experiments, clearing agents were administered two hours after or simultaneously with the radioactive dose.

[7] = in vivo; cited from earlier work
[8] = cited from earlier work
[9] = versus gallium alone; cited from earlier work
[10] = cited from earlier work; remark: listed apart in the source
[11] = Blood activity-time curve of carrier-free gallium-67 citrate, no clearing agent; type: in vivo, normal Sprague Dawley rat; conditions: single i.v.
From the text: In this study, an external blood-loop technique (Int J of Appl Radiat Isot 29: 189-190, 1978) is used to monitor blood activity of the radiopharmaceutical as a function of time. Relative tissue concentrations are monitored by external imaging.
For blood clearance studies, male Sprague Dawley rats weighing 250-300 grams were used. The animals were anesthetized by peritoneal injection of an aqueous solution of urethan (1 gm/Kg). The right carotid artery and left jugular vein were exposed and an external blood loop (PE-50 tubing; volume.perspectiveto.0.14 ml) was inserted between the vessels. Blood was diverted from the artery, through the loop, and back to the animal via the vein (Int J of Appl Radiat Isot 29: 189-190, 1978). The right external jugular vein was then exposed and cannulated as an injection site. The animal was placed in a lead cradle and the blood loop inserted into the shielded well of a sodium iodide.thallium crystal. The animal received an injection of carrier-free gallium citrate (100-120 μCi) via the jugular cannula. Blood activity within the loop was continuously monitored as a function of time using a Packard Model 9012 Multi-channel Analyzer/Multi-scaler system (Packard Instrument Co., Downersville, Ill.). Six hours post injection, the animal received a second injection containing one of the clearing agents (.perspectiveto.7.2 mmole/Kg). […]

[12] = system: induced abscesses; conditions: rabbits bearing induced abscesses; cited from earlier work
[13] = clearing agent two hours post radiopharmaceutical, gallium citrate 3 mg/Kg, […] 2.1 mg/Kg
[14] = clearing agent two hours after radiopharmaceutical

Compound: CC(O)C(=O)[O][Al]([O]C(=O)C(C)O)[O]C(=O)C(C)O (centres unmarked) [Aluminum, aluminum lactate]
- redistribution of radioactivity (imaging) [1]: no significant redistribution of the radioactivity
- % Decrease in Blood Activity [2]: 9%
- Net Decrease in blood activity [2]: 6%
- % Increase in Blood Activity [2]: 3%

Compound: O=C([O-])CC(O)(CC(=O)[O-])C(=O)[O-].[Ga+3] [Gallium, gallium citrate]
- redistribution of radioactivity (imaging) [1]: shifted the radioactivity out of the blood/soft tissue regions and into the kidneys and the bladder
- % Decrease in Blood Activity [2]: 40%
- % Decrease in Blood Activity ([2]; listed as non-radioactive gallium): approximately 40%
- Net Decrease in blood activity [2]: 25%
- change in blood activity (in words) [2]: decrease very rapidly
- blood activity reduction vs no clearing agent ([2]; eight hours post radiopharmaceutical dosing, gallium 3.3 mg/Kg at six hours): approximately 25%
- % Increase in Blood Activity [2]: 15%
- effect on blood and tumor activity [3]: decrease blood activity without significantly reducing tumor activity
- clearing of soft tissue / abdominal activity (imaging) [4, 13]: some clearing in the upper abdomen and in regions of the lower abdomen
- tumor activity (imaging) [4, 13]: little loss of activity from the tumor region
- activity bound within tumors (imaging, summary) ([4]; moderate doses of carrier gallium, […] two hours after radiopharmaceutical): obviously affected
- redistribution of radioactivity outside tumor (imaging) ([5]; gallium citrate 3 mg/Kg): less dramatic effect
- loss of activity from the tumor (imaging) ([5]; gallium citrate 3 mg/Kg, compared with high dose): much less
- redistribution of radioactivity outside tumor (imaging) ([5]; gallium citrate 15 mg/Kg): obvious redistributions of radioactivity
- tumor activity (imaging) ([5]; gallium citrate 15 mg/Kg): tumor activity was observed to decrease
- blood activity cleared [6, 14]: 78%
- subsequent rise in blood activity (in words) [6, 14]: characteristic rise in activity
- net clearance of blood activity ([6]; two hours after radiopharmaceutical, gallium 3.3 mg/Kg): 70%

Compound: O=C([O-])CC(O)(CC(=O)[O-])C(=O)[O-].[Sc+3] [Scandium citrate]
- hemolytic anemia [7]: severe hemolytic anemia
- tumor to blood and tumor to tissue ratios ([8]; gallium-67 and scandium citrates injected simultaneously): extremely high tumor to blood and tumor to tissue ratios
- effect upon gallium binding in tumors ([8]; in vivo): little or no effect upon gallium binding in tumors

Compound: CC(=O)[O-].CC(=O)[O-].CC(=O)[O-].[Tl+3] [Thallium, thallium triacetate]
- redistribution of radioactivity (imaging) [1]: no significant redistribution of the radioactivity
- % Decrease in Blood Activity [2]: 0%
- Net Decrease in blood activity [2]: 0%
- change in blood activity (in words) [2]: no change in blood activity
- % Increase in Blood Activity [2]: 0%

Compound: CC(=O)N(O)CCCCCNC(=O)CCC(=O)N(O)CCCCCNC(=O)CCC(=O)N(O)CCCCCN [desferoxamine]
- renal elimination rate of gallium desferoxamine complex [9]: rate greater than that observed for gallium alone

Compound: O=C([O-])CC(O)(CC(=O)[O-])C(=O)[O-].[67Ga+3] [gallium-67 citrate]
- time of maximum gallium activity in tumors ([10]; after intravenous administration): eighteen
- plasma / blood and soft tissue protein binding ([10]; given in very low doses): extensively bound
- clearing from blood and soft tissue binding sites ([10]; in vivo): slow process
- radiation dose ([10]; prolonged retention of 67Ga in the body): relatively high radiation dose
- t1/2 of very rapid component of blood curve [11]: 12 s
- time to completion of rapid distribution process ([11]; after dosing): four to six

Compound: iron dextran
- clearing of gallium and abscess uptake [12]: clearing of gallium with enhanced abscess uptake of gallium

From patent US4448763A, “Alteration of gallium biodistribution using indium complexes for enhanced early imaging” (priority 1980, dated 1984)
